Data reported in patent US10214546B2, “Btk inhibitors” (MERCK SHARP & DOHME CORP., priority 2014, dated 2019).
Where two headings read alike, the source gives them in different places.

What was measured:
[1] = tested on: adenosine uptake into HeLa cells; experiment: [3H]Adenosine uptake assay in HeLa cells; type: cell-based; settings: [3H]adenosine accumulation in HeLa cells, compound range 10 μM to 0.032 nM, read-out: ADU inhibition IC50
In short: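 HeLa cells in HBSS + 5% FBS were preincubated 30 min at ambient temperature with compound (ten-point 1:3 series, 10 µM–[…] final), then given [3H]adenosine (added as a 500 nM solution) for 60 min. Cell-associated label was read by scintillating-plate proximity counting; IC50 from 4-parameter fit of cps versus log concentration.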

[2] = biological target: BTK enzyme (recombinant full-length BTK, hBTK) (Homo sapiens (Human), UniProt Q06187); experiment: BTK enzymatic activity LANCE TR-FRET assay; type: biochemical; settings: 50 pM hBTK, 25 μM ATP, 2 μM biotin-A5-peptide; compound range 1 μM to 0.017 nM; read-out: BTK binding IC50
Sequence of BTK enzyme (recombinant full-length BTK, hBTK) (Q06187 whole entry): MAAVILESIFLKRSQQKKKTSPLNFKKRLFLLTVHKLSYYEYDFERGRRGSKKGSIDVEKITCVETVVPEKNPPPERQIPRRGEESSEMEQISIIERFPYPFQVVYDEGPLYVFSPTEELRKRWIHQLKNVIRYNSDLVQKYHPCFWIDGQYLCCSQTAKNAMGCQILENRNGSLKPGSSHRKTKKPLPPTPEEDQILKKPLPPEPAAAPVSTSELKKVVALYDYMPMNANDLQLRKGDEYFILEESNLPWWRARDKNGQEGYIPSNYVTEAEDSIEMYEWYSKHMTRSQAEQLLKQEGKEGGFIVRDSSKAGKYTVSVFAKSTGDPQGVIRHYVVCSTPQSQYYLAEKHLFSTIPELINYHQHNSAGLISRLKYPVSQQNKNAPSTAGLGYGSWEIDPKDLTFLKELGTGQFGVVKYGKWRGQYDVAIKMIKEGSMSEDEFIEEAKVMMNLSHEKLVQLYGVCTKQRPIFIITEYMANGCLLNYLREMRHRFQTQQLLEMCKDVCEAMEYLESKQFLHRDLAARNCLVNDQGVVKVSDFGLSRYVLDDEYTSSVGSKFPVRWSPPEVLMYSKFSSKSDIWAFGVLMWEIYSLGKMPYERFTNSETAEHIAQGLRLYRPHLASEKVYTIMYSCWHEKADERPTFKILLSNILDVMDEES

Compound	IC50 ([1]; Homo sapiens, HeLa)	IC50 [2]	IC50 [1]
CC(O)(c1ccc(-c2nc([C@@H]3CC[C@H]4CCC(=O)N4C3)n3ccnc(N)c23)cc1)c1cc(C(F)(F)F)ccc1F (stereo partly drawn) [Example 145, (6R,8aS)-6-[8-amino-1-(4-{1-[2-fluoro-5-(trifluoromethyl)phenyl]-1-hydroxyethyl}phenyl)imidazo[1,5-a]pyrazin-3-yl]hexahydroindolizin-3(2H)-one]	1220 nM	1000 nM	
CC(O)(c1ccc(-c2nc([C@@H]3CC[C@H]4CCC(=O)N4C3)n3ccnc(N)c23)cc1)c1cc(C(F)(F)F)cc(C(F)(F)F)c1 (stereo partly drawn) [Example 146, (6R,8aS)-6-[8-amino-1-(4-{1-[3,5-bis(trifluoromethyl)phenyl]-1-hydroxyethyl}phenyl)imidazo[1,5-a]pyrazin-3-yl]hexahydroindolizin-3(2H)-one]	1490 nM	752 nM	
CC(O)(c1ccc(-c2nc([C@@H]3CC[C@H]4CCC(=O)N4C3)n3ccnc(N)c23)cc1)C1CC2CCC1CC2 (stereo partly drawn) [Example 149, (6R,8aS)-6-{8-amino-1-[4-(1-bicyclo[2.2.2]oct-2-yl-1-hydroxyethyl)phenyl]imidazo[1,5-a]pyrazin-3-yl}hexahydroindolizin-3(2H)-one]		888 nM	701 nM
C[C@](O)(c1ccc(-c2nc([C@@H]3CC[C@H]4CCC(=O)N4C3)n3ccnc(N)c23)cc1)c1cccc(-n2ccnc2)c1 [Example 153, (6R,8aS)-6-[8-amino-1-(4-{(1S)-1-hydroxy-1-[3-(1H-imidazol-1-yl)phenyl]ethyl}phenyl)imidazo[1,5-a]pyrazin-3-yl]hexahydroindolizin-3(2H)-one]	1960 nM	1000 nM	
C[C@](O)(c1ccc(-c2nc([C@@H]3CC[C@H]4CCC(=O)N4C3)n3ccnc(N)c23)cc1)c1ccnc(C(F)(F)F)c1 [Example 154, (6R,8aS)-6-[8-amino-1-(4-{(1S)-1-hydroxy-1-[2-(trifluoromethyl)pyridin-4-yl]ethyl}phenyl)imidazo [1,5-a]pyrazin-3-yl]hexahydroindolizin-3(2H)-one]	464 nM	1000 nM	

The next compounds have a lower IC50 [2] than those just listed; values first:

IC50 ([1]; Homo sapiens, HeLa)	IC50 [2]	IC50 [1]	Compound
	26.2 nM	3830 nM	CC(O)(c1ccc(-c2nc([C@@H]3CC[C@H]4CCC(=O)N4C3)n3ccnc(N)c23)cc1)C1CC2CCC1CC2 (stereo partly drawn) [Example 147, (6R,8aS)-6-{8-amino-1-[4-(1-bicyclo[2.2.2]oct-2-yl-1-hydroxyethyl)phenyl]imidazo[1,5-a]pyrazin-3-yl}hexahydroindolizin-3(2H)-one]
	0.2 nM	2990 nM	CC(O)(c1ccc(-c2nc([C@@H]3CC[C@H]4CCC(=O)N4C3)n3ccnc(N)c23)cc1)c1cccc(OC(F)F)c1 (stereo partly drawn) [Example 148, (6R,8aS)-6-[8-amino-1-(4-{1-[3-(difluoromethoxy)phenyl]-1-hydroxyethyl}phenyl)imidazo[1,5-a]pyrazin-3-yl]hexahydroindolizin-3(2H)-one]
	1.6 nM	2410 nM	CC(O)(c1ccc(-c2nc([C@@H]3CC[C@H]4CCC(=O)N4C3)n3ccnc(N)c23)cc1)C1CC2CCC1CC2 (stereo partly drawn) [Example 150, (6R,8aS)-6-{8-amino-1-[4-(1-bicyclo[2.2.2]oct-2-yl-1-hydroxyethyl)phenyl]imidazo[1,5-a]pyrazin-3-yl}hexahydroindolizin-3(2H)-one]
	12.1 nM	2040 nM	CC(O)(c1ccc(-c2nc([C@@H]3CC[C@H]4CCC(=O)N4C3)n3ccnc(N)c23)cc1)c1cc(C(F)(F)F)ccc1F (stereo partly drawn) [Example 151, (6R,8aS)-6-[8-amino-1-(4-{1-[2-fluoro-5-(trifluoromethyl)pheny]-1-hydroxyethyl}phenyl)imidazo[1,5-a]pyrazin-3-yl]hexahydroindolizin-3(2H)-one]
2960 nM	39.1 nM		C[C@@](O)(c1ccc(-c2nc([C@@H]3CC[C@H]4CCC(=O)N4C3)n3ccnc(N)c23)cc1)c1cccc(-n2ccnc2)c1 [Example 152, (6R,8aS)-6-[8-amino-1-(4-{(1R)-1-hydroxy-1-[3-(1H-imidazol-1-yl)phenyl]ethyl}phenyl)imidazo[1,5-a]pyrazin-3-yl]hexahydroindolizin-3(2H)-one]
